Data taken from EPA's ToxRefDB 2.

Legend:
[1] = tested on: mouse; settings: Subchronic oral toxicity in rodents, b6c3f1, Gavage/Intubation, dose end: 17 week, group: systemic
[2] = tested on: mouse; settings: Combined chronic toxicity/carcinogenicity; b6c3f1; Oral; Gavage/Intubation; dose end: 104 week; group: systemic; systemic / pathology microscopic / stomach / hyperkeratosis + systemic / pathology microscopic / stomach / hyperplasia + systemic / …
[3] = tested on: rat; settings: Subchronic inhalation toxicity, other, Whole-Body, dose end: 13 week, group: systemic
[4] = tested on: rat; settings: Combined chronic toxicity/carcinogenicity, fischer, Oral, Gavage/Intubation, dose end: 104 week, group: systemic
[5] = tested on: rat; settings: Subchronic oral toxicity in rodents, sprague dawley, Gavage/Intubation, dose end: 90 day, group: systemic
[6] = tested on: mouse; settings: Combined chronic toxicity/carcinogenicity, b6c3f1, Oral, Gavage/Intubation, dose end: 104 week, group: systemic
[7] = tested on: rat; settings: Multigenerational reproductive toxicity study, other, Inhalation, Whole-Body, dose end: 1 generation
[8] = tested on: rat; settings: Combined chronic toxicity/carcinogenicity; fischer; Oral; Gavage/Intubation; dose end: 104 week; group: systemic; systemic / pathology microscopic / stomach / hyperplasia + systemic / pathology microscopic / clitoral gland / hyperplasia + systemic / …
[9] = tested on: rat; settings: Subchronic inhalation toxicity, other, Whole-Body, dose end: 13 week, group: systemic; remark: listed apart in the source
[10] = tested on: rat; settings: Sub-acute repeat dose toxicity, other, Inhalation, Whole-Body, dose end: 4 week, group: systemic
[11] = tested on: rat; settings: Subchronic oral toxicity in rodents, sprague dawley, Water, dose end: 90 day, group: systemic
[12] = tested on: rat; settings: Sub-acute repeat dose toxicity, sprague dawley, Oral, Gavage/Intubation, dose end: 10 day, group: systemic
[13] = tested on: mouse; settings: Multigenerational reproductive toxicity study, cd1, Oral, Gavage/Intubation, dose end: 2 generation
[14] = tested on: rat; settings: Subchronic oral toxicity in rodents, fischer, Gavage/Intubation, dose end: 17 week, group: systemic
[15] = tested on: mouse; settings: Sub-acute repeat dose toxicity, b6c3f1, Oral, Gavage/Intubation, dose end: 14 day, group: systemic
[16] = tested on: mouse; settings: Subchronic oral toxicity in rodents, b6c3f1, Gavage/Intubation, dose end: 13 week, group: systemic
[17] = tested on: rat; settings: Subchronic oral toxicity in rodents, fischer, Gavage/Intubation, dose end: 13 week, group: systemic
[18] = systemic / pathology microscopic / lung / regeneration + systemic / pathology microscopic / stomach / acanthosis + systemic / pathology …
[19] = systemic / hematology / platelet / platelet + systemic / in life observation / clinical signs / lacrimation
[20] = systemic / in life observation / clinical signs / lacrimation
[21] = systemic / pathology microscopic / clitoral gland / adenoma + systemic / pathology microscopic / clitoral gland / adenoma/carcinoma combined…
[22] = systemic / pathology microscopic / stomach / squamous cell papilloma + systemic / pathology microscopic / pancreas / hyperplasia + systemic…
[23] = systemic / pathology microscopic / heart / inflammation + systemic / pathology microscopic / heart / necrosis
[24] = systemic / pathology microscopic / heart / inflammation + systemic / pathology microscopic / heart / necrosis + systemic / clinical …
[25] = systemic / pathology microscopic / harderian gland / adenoma + systemic / pathology microscopic / liver / hepatocellular adenoma + systemic…
[26] = systemic / pathology microscopic / stomach / squamous cell carcinoma + systemic / pathology microscopic / stomach / squamous cell papilloma…
[27] = group: parental, systemic / in life observation / body weight / body weight + systemic / in life observation / body weight / body weight gain
[28] = group: reproductive, reproductive / reproductive performance / mating / mating
[29] = systemic / hematology / leukocyte (wbc) count differential / leukocyte (wbc) + systemic / in life observation / body weight / body weight + …
[30] = systemic / pathology microscopic / lung / hyperplasia + systemic / pathology microscopic / spleen / hematopoietic cell proliferation + …
[31] = systemic / in life observation / body weight / body weight + systemic / in life observation / body weight / body weight gain + systemic / in…
[32] = systemic / in life observation / body weight / body weight gain + systemic / organ weight / liver / absolute + systemic / organ weight / …
[33] = systemic / clinical chemistry / aminopyrine-n-demethylase / aminopyrine-n-demethylase + systemic / clinical chemistry / cholesterol / …
[34] = systemic / clinical chemistry / urea nitrogen / urea nitrogen + systemic / organ weight / kidney / relative to body weight
[35] = systemic / clinical chemistry / urea nitrogen / urea nitrogen + systemic / organ weight / kidney / relative to body weight + systemic / …
[36] = group: offspring, systemic / in life observation / body weight / offspring (pup) weight + systemic / in life observation / water consumption / water …
[37] = group: offspring, systemic / organ weight / kidney / relative to body weight + systemic / organ weight / liver / relative to body weight
[38] = group: parental, systemic / in life observation / body weight / body weight + systemic / in life observation / water consumption / water consumption + …
[39] = group: reproductive, reproductive / reproductive performance / estrous cycle / length
[40] = group: reproductive, reproductive / reproductive performance / fertility / fertility + reproductive / reproductive performance / gestational length / gestational…
[41] = systemic / clinical chemistry / [other] / [other] + systemic / hematology / erythrocyte (rbc) count differential / erythrocyte (rbc) + …
[42] = systemic / organ weight / stomach / nos + systemic / pathology microscopic / stomach / hyperplasia + systemic / pathology microscopic / …
[43] = systemic / pathology microscopic / stomach / hyperplasia
[44] = systemic / pathology microscopic / stomach / hyperplasia + systemic / organ weight / stomach / absolute + systemic / organ weight / stomach…

ClCC(Cl)CCl [1,2,3-Trichloropropane]
LEL ([1]; systemic / organ weight / liver / absolute): 32 mg/kg/day
NEL ([1]; systemic / organ weight / liver / absolute + systemic / in life observation / body weight / body weight gain + systemic / in life …): 16 mg/kg/day
LOAEL [1, 18]: 63 mg/kg/day
NOAEL [1, 18]: 32 mg/kg/day
LEL [2]: 6 mg/kg/day
LOAEL [2]: 6 mg/kg/day
NEL [2]: < 6 mg/kg/day
NOAEL [2]: < 6 mg/kg/day
LOAEL [3, 19]: > 1.5 ppm
NOAEL [3, 19]: ≥ 1.5 ppm
LEL [3, 20]: 0.5 ppm
NEL [3, 20]: < 0.5 ppm
LOAEL [4, 21]: > 30 mg/kg/day
NOAEL [4, 21]: ≥ 30 mg/kg/day
LEL [4, 22]: 3 mg/kg/day
NEL [4, 22]: < 3 mg/kg/day
LEL [5, 23]: 0.00147 mg/kg/day
NEL [5, 23]: < 0.00147 mg/kg/day
LOAEL [5, 24]: > 0.059 mg/kg/day
NOAEL [5, 24]: ≥ 0.059 mg/kg/day
LOAEL [6, 25]: > 60 mg/kg/day
NOAEL [6, 25]: ≥ 60 mg/kg/day
LEL [6, 26]: 6 mg/kg/day
NEL [6, 26]: < 6 mg/kg/day
LEL [7, 27]: 15 ppm
LOAEL [7, 27]: > 15 ppm
NEL [7, 27]: 5 ppm
NOAEL [7, 27]: ≥ 15 ppm
LEL [7, 28]: 5 ppm
LOAEL [7, 28]: > 15 ppm
NEL [7, 28]: < 5 ppm
NOAEL [7, 28]: ≥ 15 ppm
LEL [8]: 3 mg/kg/day
LOAEL [8]: 3 mg/kg/day
NEL [8]: < 3 mg/kg/day
NOAEL [8]: < 3 mg/kg/day
LOAEL [9, 29]: > 50 ppm
NOAEL [9, 29]: ≥ 50 ppm
LEL [9, 30]: 5 ppm
NEL [9, 30]: < 5 ppm
LOAEL [10, 31]: > 900 ppm
NOAEL [10, 31]: ≥ 900 ppm
LEL [10, 32]: 100 ppm
NEL [10, 32]: < 100 ppm
LOAEL [11, 33]: > 50 mg/kg/day
NEL [11, 33]: 0.5 mg/kg/day
NOAEL [11, 33]: ≥ 50 mg/kg/day
LEL ([11]; systemic / in life observation / water consumption / water consumption + systemic / organ weight / kidney / relative to body weight + …): 5 mg/kg/day
LEL [12, 34]: 0.00147 mg/kg/day
NEL [12, 34]: < 0.00147 mg/kg/day
LOAEL [12, 35]: > 0.118 mg/kg/day
NOAEL [12, 35]: ≥ 0.118 mg/kg/day
LOAEL [13, 36]: > 120 mg/kg/day
NOAEL [13, 36]: ≥ 120 mg/kg/day
LEL [13, 37]: 30 mg/kg/day
NEL [13, 37]: < 30 mg/kg/day
LEL [13, 38]: 120 mg/kg/day
LOAEL [13, 38]: > 120 mg/kg/day
NEL [13, 38]: 60 mg/kg/day
NOAEL [13, 38]: ≥ 120 mg/kg/day
LEL [13, 39]: 30 mg/kg/day
NEL [13, 39]: < 30 mg/kg/day
LOAEL [13, 40]: > 120 mg/kg/day
NOAEL [13, 40]: ≥ 120 mg/kg/day
LEL [14, 41]: 8 mg/kg/day
NEL [14, 41]: < 8 mg/kg/day
NOAEL ([14]; systemic / pathology microscopic / kidney / regeneration + systemic / clinical chemistry / [other] / [other] + systemic / clinical chemistry…): 32 mg/kg/day
LOAEL ([14]; systemic / pathology microscopic / kidney / regeneration + systemic / organ weight / kidney / absolute + systemic / in life observation / …): 63 mg/kg/day

CC(C)(C)OOC(=O)c1ccccc1 [tert-Butyl perbenzoate]
LOAEL [15, 42]: > 1110 mg/kg/day
NEL [15, 42]: 140 mg/kg/day
NOAEL [15, 42]: ≥ 1110 mg/kg/day
LEL ([15]; systemic / pathology microscopic / stomach / hyperplasia + systemic / organ weight / stomach / nos): 278 mg/kg/day
LEL [16, 43]: 60 mg/kg/day
LOAEL [16, 43]: 60 mg/kg/day
NEL [16, 44]: 30 mg/kg/day
NOAEL [16, 44]: 30 mg/kg/day
LEL [17, 43]: 30 mg/kg/day
NEL [17, 43]: < 30 mg/kg/day
LOAEL ([17]; systemic / pathology microscopic / stomach / hyperplasia + systemic / pathology microscopic / stomach / inflammation): 250 mg/kg/day
NOAEL ([17]; systemic / pathology microscopic / stomach / hyperplasia + systemic / pathology microscopic / stomach / inflammation + systemic / in life …): 125 mg/kg/day
